What was measured:
CU-ACC2 = assay: area under concentration-response curve (viability) (AUC (a.u.)); higher = less active; settings: 48 h
In short: (§1)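 AC50 and area under the curve values derive from fitted concentration-response curves, restricted to inhibitory or non-responding curve classes. The curves came from three adrenocortical carcinoma cell lines in 1,536-well plates, each receiving 23 nL of every library compound at 11 concentrations. Viability was read by CellTiter-Glo luminescence after 48 h, normalised per plate to vehicle and empty-well controls.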

CU-ACC1 = assay: as above; settings: 48 h
In short: as §1

| SMILES | area under concentration-response curve (CU-ACC2) | area under concentration-response curve (CU-ACC1) |
| --- | --- | --- |
| CC(=O)Oc1cc2c(s1)CCN(C(C(=O)C1CC1)c1ccccc1F)C2 (stereo not given) | 476 | 492 |
| Cn1cc(C[C@@H](N)C(=O)O)c2ccccc21 | 658 | 619 |
| Cc1[nH]c(=O)c(C#N)cc1-c1ccc2nccn2c1.Cl | 624 | 587 |
| CCN(CC)C(=O)Cc1csc(N[S+](=O)([O-])c2cccc(Cl)c2C)n1 | 445 | 415 |
| O=C(NCCO[N+](=O)[O-])c1cccnc1 | 605 | 566 |
| CC(C)(C)C1=NC2=C([NH]1)C3=CC=C(F)C=C3C4=C2\C=C/NC4=O | 500 | 494 |
| C[C@]12CC[C@H]3[C@@H](CC[C@@]45O[C@@H]4\C(=C(/C[C@]35C)C#N)O)[C@@H]1CC[C@@H]2O | 590 | 571 |
| O=C1Nc2ccccc2/C1=C1\Nc2ccccc2C1=O | 589 | 557 |
| CC(C)c1ccc2oc3nc(N)c(C(=O)O)cc3c(=O)c2c1 | 606 | 543 |
| O=C(Oc1ccc([N+](=O)[O-])cc1)N1CCN(Cc2cccc(Oc3ccccc3)c2)CC1 | 556 | 531 |
| CN1CCc2c(c3ccccc3n2Cc2ccc(C(=O)NO)cc2)C1 | 595 | 553 |
| NC\1=N\C(=O)N(\C=C1)[C@@H]2O[C@H](CO)[C@@H](O)[C@H]2O | 610 | 582 |
| CC1(N)CCN(c2cccnc2NC(=O)c2nc(-c3ncccc3C(F)(F)F)cnc2N)CC1 | 509 | 430 |
| CC(=O)Nc1ccc(OC[C@](C)(O)C(=O)Nc2ccc([N+](=O)[O-])c(C(F)(F)F)c2)cc1 | 515 | 519 |
| CC(C)c1ccc2c(c1)c(SC(C)(C)C)c(CC(C)(C)C(=O)[O-])n2Cc1ccc(Cl)cc1 | 572 | 457 |
| N=C1N[C@H]2[C@H](CS[C@H]2CCCCC(=O)O)N1 | 256 | 217 |
| C[C@H](Nc1nc(N[C@H](C)C(F)(F)F)nc(-c2cccc(Cl)n2)n1)C(F)(F)F | 606 | 547 |
| Cc1cc(C(=O)Nc2cc(Oc3ccc4nc(NC(=O)C5CC5)cn4n3)ccc2C)n(C)n1 | 606 | 511 |
| C=CC(=O)N1C[C@H](Nc2ncnc3[nH]ccc23)CC[C@@H]1C | 622 | 587 |
| COc1ccccc1C(=O)Nc1cc2c(cc1N1CCCC1)n(C)c(=O)n2C | 602 | 537 |
| CCCCCCCCCCCC/1=C(O)/C(=O)/C=C(O)\C1=O | 593 | 534 |
| Cn1cc(-c2ccncc2)c(-c2ccc(OCc3ccc4ccccc4n3)cc2)n1 | 597 | 495 |
| COC1=CC2=C(OC\C(=C2\C3=CC=C(F)C=C3)CN4CCCC4)C=C1 | 560 | 500 |
| CCCCCCCCCCCCCCCCOCCCO[P](O)(=O)COC(CO)CN1/C=C\C(=N/C1=O)N (stereo not given) | 609 | 551 |
| CC(C)(C)NC(=O)[C@H]1CC[C@H]2[C@@H]3CC[C@H]4NC(=O)\C=C/[C@]4(C)[C@H]3CC[C@]12C | 622 | 618 |

Source: the supplement of paper PMC10949913
